Test results from patent publication US8772480B2, “Inhibitors of PI3 kinase and/or mTOR” (priority 2009, dated 2014).

Assays:
Type in all cases: biochemical
[1] = biological target: ProfilerPro Kinase Selectivity Assay Kit kinases (Homo sapiens, UniProt O75116); details: ROCK2; 1 μM compound concentration
[2] = biological target: ProfilerPro Kinase Selectivity Assay Kit kinases (Homo sapiens, UniProt O75582); details: MSK1; 1 μM compound concentration
[3] = biological target: ProfilerPro Kinase Selectivity Assay Kit kinases (Homo sapiens, UniProt P00519); details: ABL; 1 μM compound concentration
[4] = biological target: ProfilerPro Kinase Selectivity Assay Kit kinases (Homo sapiens, UniProt P04049); details: cRAF; 1 μM compound concentration
[5] = biological target: ProfilerPro Kinase Selectivity Assay Kit kinases (Homo sapiens, UniProt P06213); details: INSR; 1 μM compound concentration
[6] = biological target: ProfilerPro Kinase Selectivity Assay Kit kinases (Homo sapiens, UniProt P06239); details: LCK; 1 μM compound concentration
[7] = biological target: ProfilerPro Kinase Selectivity Assay Kit kinases (Homo sapiens, UniProt P06241); details: FYN; 1 μM compound concentration
Chain of ProfilerPro Kinase Selectivity Assay Kit kinases (Homo sapiens, UniProt P06241) (P06241 2-537 limits assumed): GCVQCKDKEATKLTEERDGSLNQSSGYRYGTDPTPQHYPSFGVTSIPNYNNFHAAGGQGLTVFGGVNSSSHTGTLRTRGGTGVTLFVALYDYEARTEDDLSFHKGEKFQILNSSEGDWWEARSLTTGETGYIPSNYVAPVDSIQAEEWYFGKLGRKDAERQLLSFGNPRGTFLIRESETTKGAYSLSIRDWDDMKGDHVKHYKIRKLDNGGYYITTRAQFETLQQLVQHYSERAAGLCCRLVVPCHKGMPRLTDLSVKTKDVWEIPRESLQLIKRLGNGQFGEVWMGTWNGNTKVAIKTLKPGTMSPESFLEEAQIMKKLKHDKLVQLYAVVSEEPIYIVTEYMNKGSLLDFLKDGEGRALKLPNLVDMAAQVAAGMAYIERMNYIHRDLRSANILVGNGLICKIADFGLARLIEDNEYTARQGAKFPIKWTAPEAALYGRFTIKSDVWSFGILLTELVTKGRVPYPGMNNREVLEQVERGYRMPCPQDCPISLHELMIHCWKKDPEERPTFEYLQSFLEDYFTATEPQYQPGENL

[8] = biological target: ProfilerPro Kinase Selectivity Assay Kit kinases (Homo sapiens, UniProt P07948); details: LYN; 1 μM compound concentration
Chain of ProfilerPro Kinase Selectivity Assay Kit kinases (Homo sapiens, UniProt P07948) (P07948 2-512 limits assumed): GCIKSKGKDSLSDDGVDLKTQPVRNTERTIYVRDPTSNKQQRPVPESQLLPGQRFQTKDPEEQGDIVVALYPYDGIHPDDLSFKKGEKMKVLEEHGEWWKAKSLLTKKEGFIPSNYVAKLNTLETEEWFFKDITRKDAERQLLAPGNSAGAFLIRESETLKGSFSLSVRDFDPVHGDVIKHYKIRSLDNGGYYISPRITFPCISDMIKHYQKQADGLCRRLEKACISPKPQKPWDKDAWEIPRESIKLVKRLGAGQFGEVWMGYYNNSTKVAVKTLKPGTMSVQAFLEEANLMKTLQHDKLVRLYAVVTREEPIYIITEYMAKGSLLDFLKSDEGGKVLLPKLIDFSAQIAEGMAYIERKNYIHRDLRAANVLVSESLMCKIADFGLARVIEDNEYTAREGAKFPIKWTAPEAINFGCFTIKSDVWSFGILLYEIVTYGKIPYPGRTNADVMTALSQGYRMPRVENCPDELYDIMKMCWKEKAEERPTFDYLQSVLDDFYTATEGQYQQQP

[9] = biological target: ProfilerPro Kinase Selectivity Assay Kit kinases (Homo sapiens, UniProt P08581); details: cMET; 1 μM compound concentration
Chain of ProfilerPro Kinase Selectivity Assay Kit kinases (Homo sapiens, UniProt P08581) (P08581 25-1390 limits assumed): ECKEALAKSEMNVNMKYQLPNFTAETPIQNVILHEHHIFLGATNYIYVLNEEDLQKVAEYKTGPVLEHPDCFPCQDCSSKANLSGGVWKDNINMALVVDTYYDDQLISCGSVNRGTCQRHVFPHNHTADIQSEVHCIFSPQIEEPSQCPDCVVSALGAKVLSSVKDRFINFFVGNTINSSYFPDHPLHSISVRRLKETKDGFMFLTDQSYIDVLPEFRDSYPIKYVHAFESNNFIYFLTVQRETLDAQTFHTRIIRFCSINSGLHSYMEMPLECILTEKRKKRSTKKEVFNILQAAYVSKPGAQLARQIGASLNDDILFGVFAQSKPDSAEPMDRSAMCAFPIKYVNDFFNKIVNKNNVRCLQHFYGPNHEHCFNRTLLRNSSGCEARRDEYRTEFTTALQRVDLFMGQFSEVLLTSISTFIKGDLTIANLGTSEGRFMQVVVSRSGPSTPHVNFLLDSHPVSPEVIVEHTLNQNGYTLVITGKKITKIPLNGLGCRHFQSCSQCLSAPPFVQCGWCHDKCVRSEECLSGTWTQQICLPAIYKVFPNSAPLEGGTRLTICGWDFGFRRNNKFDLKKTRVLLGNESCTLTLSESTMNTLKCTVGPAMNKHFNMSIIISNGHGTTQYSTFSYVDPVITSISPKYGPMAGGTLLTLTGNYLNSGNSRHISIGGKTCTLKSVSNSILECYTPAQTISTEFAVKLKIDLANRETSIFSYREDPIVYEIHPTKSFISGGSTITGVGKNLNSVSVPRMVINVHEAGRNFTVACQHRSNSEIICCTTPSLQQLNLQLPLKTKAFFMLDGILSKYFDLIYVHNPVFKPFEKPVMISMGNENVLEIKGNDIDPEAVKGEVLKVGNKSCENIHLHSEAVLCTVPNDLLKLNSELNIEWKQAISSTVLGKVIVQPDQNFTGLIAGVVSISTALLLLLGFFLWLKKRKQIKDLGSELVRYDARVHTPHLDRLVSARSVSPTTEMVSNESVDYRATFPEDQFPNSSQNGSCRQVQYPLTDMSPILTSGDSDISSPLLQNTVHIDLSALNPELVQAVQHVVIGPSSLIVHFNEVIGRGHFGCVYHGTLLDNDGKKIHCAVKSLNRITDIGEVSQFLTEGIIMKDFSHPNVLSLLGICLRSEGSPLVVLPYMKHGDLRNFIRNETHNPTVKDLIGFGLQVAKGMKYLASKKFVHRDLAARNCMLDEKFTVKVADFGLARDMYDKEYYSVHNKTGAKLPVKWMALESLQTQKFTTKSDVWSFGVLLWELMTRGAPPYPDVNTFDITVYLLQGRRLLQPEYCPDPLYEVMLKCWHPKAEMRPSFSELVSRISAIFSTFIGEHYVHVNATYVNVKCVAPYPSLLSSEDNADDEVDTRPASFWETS

[10] = biological target: ProfilerPro Kinase Selectivity Assay Kit kinases (Homo sapiens, UniProt P11362); details: FGFR1; 1 μM compound concentration
[11] = biological target: ProfilerPro Kinase Selectivity Assay Kit kinases (Homo sapiens, UniProt P12931); details: SRC; 1 μM compound concentration
[12] = biological target: ProfilerPro Kinase Selectivity Assay Kit kinases (Homo sapiens, UniProt P23443); details: p70S6K; 1 μM compound concentration
[13] = biological target: ProfilerPro Kinase Selectivity Assay Kit kinases (Homo sapiens, UniProt P24941); details: CDK2; 1 μM compound concentration
[14] = biological target: ProfilerPro Kinase Selectivity Assay Kit kinases (Homo sapiens, UniProt P28482); details: ERK2; 1 μM compound concentration
Chain of ProfilerPro Kinase Selectivity Assay Kit kinases (Homo sapiens, UniProt P28482) (P28482 2-360 limits assumed): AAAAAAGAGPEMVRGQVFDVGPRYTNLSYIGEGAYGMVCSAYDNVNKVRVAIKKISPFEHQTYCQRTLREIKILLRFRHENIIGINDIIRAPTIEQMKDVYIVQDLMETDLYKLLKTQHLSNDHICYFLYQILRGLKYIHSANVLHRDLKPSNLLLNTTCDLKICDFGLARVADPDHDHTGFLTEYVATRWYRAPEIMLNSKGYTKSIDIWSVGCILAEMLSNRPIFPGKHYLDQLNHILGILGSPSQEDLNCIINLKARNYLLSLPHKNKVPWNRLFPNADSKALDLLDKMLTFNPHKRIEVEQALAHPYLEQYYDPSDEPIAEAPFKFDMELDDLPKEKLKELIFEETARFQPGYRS

[15] = biological target: ProfilerPro Kinase Selectivity Assay Kit kinases (Homo sapiens, UniProt P31749); details: AKT1; 1 μM compound concentration
[16] = biological target: ProfilerPro Kinase Selectivity Assay Kit kinases (Homo sapiens, UniProt P31751); details: AKT2; 1 μM compound concentration
[17] = biological target: ProfilerPro Kinase Selectivity Assay Kit kinases (Homo sapiens, UniProt P35968); details: KDR; 1 μM compound concentration
[18] = biological target: ProfilerPro Kinase Selectivity Assay Kit kinases (Homo sapiens, UniProt P36888); details: FLT3; 1 μM compound concentration
Chain of ProfilerPro Kinase Selectivity Assay Kit kinases (Homo sapiens, UniProt P36888) (P36888 27-993 limits assumed): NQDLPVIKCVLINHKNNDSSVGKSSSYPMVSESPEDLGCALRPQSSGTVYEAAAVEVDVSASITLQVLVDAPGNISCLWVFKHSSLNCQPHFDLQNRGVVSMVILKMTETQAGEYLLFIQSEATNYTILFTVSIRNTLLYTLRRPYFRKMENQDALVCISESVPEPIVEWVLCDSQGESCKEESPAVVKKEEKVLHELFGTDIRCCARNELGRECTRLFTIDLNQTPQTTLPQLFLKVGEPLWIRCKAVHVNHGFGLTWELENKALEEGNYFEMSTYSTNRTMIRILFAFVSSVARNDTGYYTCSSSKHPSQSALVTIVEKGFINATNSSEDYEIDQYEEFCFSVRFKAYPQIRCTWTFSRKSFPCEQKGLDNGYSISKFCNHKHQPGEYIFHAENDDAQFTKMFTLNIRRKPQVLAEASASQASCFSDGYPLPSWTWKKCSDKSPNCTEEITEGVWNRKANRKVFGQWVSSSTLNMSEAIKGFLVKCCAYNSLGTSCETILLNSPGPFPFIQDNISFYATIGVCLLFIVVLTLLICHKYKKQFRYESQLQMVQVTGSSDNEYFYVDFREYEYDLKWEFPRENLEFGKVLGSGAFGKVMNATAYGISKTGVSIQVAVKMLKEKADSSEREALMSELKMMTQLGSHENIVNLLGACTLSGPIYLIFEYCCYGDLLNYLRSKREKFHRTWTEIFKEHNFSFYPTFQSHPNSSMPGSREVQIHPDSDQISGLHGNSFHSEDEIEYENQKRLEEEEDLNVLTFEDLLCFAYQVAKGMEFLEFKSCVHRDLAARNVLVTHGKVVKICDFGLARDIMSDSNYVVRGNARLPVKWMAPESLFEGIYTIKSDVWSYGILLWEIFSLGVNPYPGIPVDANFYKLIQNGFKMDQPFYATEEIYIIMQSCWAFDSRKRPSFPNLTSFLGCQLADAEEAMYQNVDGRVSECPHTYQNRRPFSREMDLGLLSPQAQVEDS

[19] = biological target: ProfilerPro Kinase Selectivity Assay Kit kinases (Homo sapiens, UniProt P48730); details: CK1 delta; 1 μM compound concentration
[20] = biological target: ProfilerPro Kinase Selectivity Assay Kit kinases (Homo sapiens, UniProt P49137); details: MAPKAPK2; 1 μM compound concentration
[21] = biological target: ProfilerPro Kinase Selectivity Assay Kit kinases (Homo sapiens, UniProt P49841); details: GSK3 beta; 1 μM compound concentration
[22] = biological target: ProfilerPro Kinase Selectivity Assay Kit kinases (Homo sapiens, UniProt Q13188); details: MST2; 1 μM compound concentration
[23] = biological target: ProfilerPro Kinase Selectivity Assay Kit kinases (Homo sapiens, UniProt Q13627); details: DYRK1a; 1 μM compound concentration
[24] = biological target: ProfilerPro Kinase Selectivity Assay Kit kinases (Homo sapiens, UniProt Q13976); details: PKGa2; 1 μM compound concentration
Chain of ProfilerPro Kinase Selectivity Assay Kit kinases (Homo sapiens, UniProt Q13976) (Q13976 2-671 limits assumed): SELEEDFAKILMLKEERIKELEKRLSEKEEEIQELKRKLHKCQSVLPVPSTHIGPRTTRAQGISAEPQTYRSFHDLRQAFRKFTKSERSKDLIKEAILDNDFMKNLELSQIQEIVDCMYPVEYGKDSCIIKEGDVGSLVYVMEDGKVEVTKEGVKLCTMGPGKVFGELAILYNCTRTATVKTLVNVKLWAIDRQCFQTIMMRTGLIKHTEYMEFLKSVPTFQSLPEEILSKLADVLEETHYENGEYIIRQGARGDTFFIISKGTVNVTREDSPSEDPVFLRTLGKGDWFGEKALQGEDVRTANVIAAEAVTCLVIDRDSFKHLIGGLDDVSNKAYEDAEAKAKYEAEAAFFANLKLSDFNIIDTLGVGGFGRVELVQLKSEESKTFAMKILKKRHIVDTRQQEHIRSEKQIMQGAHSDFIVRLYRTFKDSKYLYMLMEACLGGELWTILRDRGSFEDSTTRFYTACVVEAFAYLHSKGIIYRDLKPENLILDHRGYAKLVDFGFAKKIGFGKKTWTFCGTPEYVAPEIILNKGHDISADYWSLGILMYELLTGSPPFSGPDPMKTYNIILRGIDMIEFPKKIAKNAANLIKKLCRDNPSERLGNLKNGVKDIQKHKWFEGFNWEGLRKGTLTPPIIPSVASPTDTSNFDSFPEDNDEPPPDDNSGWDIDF

[25] = biological target: ProfilerPro Kinase Selectivity Assay Kit kinases (Homo sapiens, UniProt Q15418); details: RSK1; 1 μM compound concentration
[26] = biological target: ProfilerPro Kinase Selectivity Assay Kit kinases (Homo sapiens, UniProt Q16539); details: p38 alpha; 1 μM compound concentration
Chain of ProfilerPro Kinase Selectivity Assay Kit kinases (Homo sapiens, UniProt Q16539) (Q16539 2-360 limits assumed): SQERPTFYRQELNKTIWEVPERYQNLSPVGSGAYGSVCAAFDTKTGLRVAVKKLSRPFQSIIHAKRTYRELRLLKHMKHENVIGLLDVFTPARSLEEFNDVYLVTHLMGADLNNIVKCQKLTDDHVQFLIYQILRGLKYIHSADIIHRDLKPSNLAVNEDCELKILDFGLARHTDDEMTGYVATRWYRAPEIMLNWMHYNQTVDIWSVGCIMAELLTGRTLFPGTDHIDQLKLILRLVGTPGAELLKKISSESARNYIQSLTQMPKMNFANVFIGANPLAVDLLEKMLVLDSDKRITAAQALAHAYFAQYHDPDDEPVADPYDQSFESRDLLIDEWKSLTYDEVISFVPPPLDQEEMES

[27] = biological target: ProfilerPro Kinase Selectivity Assay Kit kinases (Homo sapiens, UniProt Q16566); details: CAMK4; 1 μM compound concentration
[28] = biological target: ProfilerPro Kinase Selectivity Assay Kit kinases (Homo sapiens, UniProt Q8IW41); details: PRAK; 1 μM compound concentration
[29] = biological target: ProfilerPro Kinase Selectivity Assay Kit kinases (Homo sapiens, UniProt Q9P0L2); details: MARK1; 1 μM compound concentration
[30] = biological target: ProfilerPro Kinase Selectivity Assay Kit kinases (Homo sapiens, UniProt Q9P1W9); details: PIM2; 1 μM compound concentration
[31] = test system: ProfilerPro Kinase Selectivity Assay Kit kinases; details: 1 μM compound concentration

| POC (Percent of control) ROCK2 [1] | POC (Percent of control) MSK1 [2] | POC (Percent of control) ABL [3] | POC (Percent of control) cRAF [4] | POC (Percent of control) INSR [5] | POC (Percent of control) LCK [6] | POC (Percent of control) FYN [7] | POC (Percent of control) LYN [8] | POC (Percent of control) cMET [9] | POC (Percent of control) FGFR1 [10] | POC (Percent of control) SRC [11] | POC (Percent of control) p70S6K [12] | POC (Percent of control) CDK2 [13] | POC (Percent of control) ERK2 [14] | POC (Percent of control) AKT1 [15] | POC (Percent of control) AKT2 [16] | POC (Percent of control) KDR [17] | POC (Percent of control) FLT3 [18] | POC (Percent of control) CK1 delta [19] | POC (Percent of control) MAPKAPK2 [20] | SMILES | other results |
| --- | --- | --- | --- | --- | --- | --- | --- | --- | --- | --- | --- | --- | --- | --- | --- | --- | --- | --- | --- | --- | --- |
| 101 POC | 112 POC | 97 POC | 108 POC | 98 POC | 97 POC | 96 POC | 101 POC | 104 POC | 99 POC | 99 POC | 112 POC | 106 POC | 103 POC | 103 POC | 112 POC | 105 POC | 106 POC | 70 POC | 99 POC | Cc1nc(N)nc(-c2cccnc2Nc2cccc(O)c2)n1 [Example 23, 3-(3-(4-Amino-6-Methyl-1,3,5-Triazin-2-yl)Pyridin-2-Ylamino)Phenol] | POC (Percent of control) GSK3 beta [21]: 96 POC; POC (Percent of control) MST2 [22]: 101 POC; POC (Percent of control) DYRK1a [23]: 93 POC; POC (Percent of control) PKGa2 [24]: 87 POC; POC (Percent of control) RSK1 [25]: 103 POC; POC (Percent of control) p38 alpha [26]: 104 POC; POC (Percent of control) CAMK4 [27]: 98 POC; POC (Percent of control) PRAK [28]: 97 POC; POC (Percent of control) MARK1 [29]: 97 POC; POC (Percent of control) PIM2 [30]: 99 POC; POC (Percent of control) AMPK [31]: 98 POC; POC (Percent of control) CAMK2 [31]: 108 POC; POC (Percent of control) PKC beta2 [31]: 92 POC; POC (Percent of control) TAK1 [31]: 102 POC |
| 95 POC | 94 POC | 104 POC | 95 POC | 71 POC | 101 POC | 98 POC | 91 POC | 95 POC | 94 POC | 89 POC | 91 POC | 84 POC | 97 POC | 98 POC | 95 POC | 81 POC | 73 POC | 43 POC | 101 POC | Cc1nc(N)cc(-c2cccnc2Nc2cccc3[nH]ncc23)n1 [Example 27, N-(3-(6-Amino-2-Methylpyrimidin-4-yl)Pyridin-2-yl)-1H-Indazol-4-Amine] | POC (Percent of control) GSK3 beta [21]: 80 POC; POC (Percent of control) MST2 [22]: 84 POC; POC (Percent of control) DYRK1a [23]: 92 POC; POC (Percent of control) PKGa2 [24]: 90 POC; POC (Percent of control) RSK1 [25]: 89 POC; POC (Percent of control) p38 alpha [26]: 104 POC; POC (Percent of control) CAMK4 [27]: 56 POC; POC (Percent of control) PRAK [28]: 98 POC; POC (Percent of control) MARK1 [29]: 102 POC; POC (Percent of control) PIM2 [30]: 106 POC; POC (Percent of control) AMPK [31]: 83 POC; POC (Percent of control) CAMK2 [31]: 116 POC; POC (Percent of control) PKC beta2 [31]: 166 POC; POC (Percent of control) TAK1 [31]: 102 POC |
